Reference: US8044071B2, “Method for reducing side effects of CB2 receptor agonist therapy using a combination of a selective CB2 receptor agonist and a selective CB1 receptor antagonist” (Abbott Laboratories, priority 2007, dated 2011)
Where two headings read alike, the source gives them in different places.

Key:
[1] = molecular target: T1, human CB2 receptors (Homo sapiens, UniProt P34972); assay: CB2 radioligand binding assay ([3H]CP-55,940 competition)
T1 construct: expressed in transfected cells
Method: (§1) To determine the selectivity (Ki) of the compounds of the present application for CB2 receptors relative to CB1 receptors, radioligand binding assays are performed, which are described herein.
For CB2 radioligand binding assays, HEK293 cells stably expressing human CB2 receptors were grown until a confluent monolayer was formed. Briefly, the cells were harvested and homogenized in TE buffer (50 mM Tris-HCl, 1 mM MgCl2, and 1 mM EDTA) using a polytron for 2×10 second bursts in the presence of protease inhibitors, followed by centrifugation at 45,000×g for 20 minutes. The final membrane pellet was re-homogenized in storage buffer (50 mM Tris-HCl, 1 mM MgCl2, and 1 mM EDTA and 10% sucrose) and frozen at −78° C. until used. Saturation binding reactions were initiated by the addition of membrane preparation (protein concentration of 5 μg/well for human CB2) into wells of a deep well plate containing [^3H]CP-55,940 (120 Ci/mmol, a nonselective CB agonist commercially available from Tocris) in assay buffer (50 mM Tris, 2.5 mM EDTA, 5 mM MgCl2, and 0.5 mg/mL fatty acid free BSA, pH 7.4). After 90 min incubation at 30° C., binding reaction was terminated by the addition of 300 μl/well of cold assay buffer followed by rapid vacuum filtration through a UniFilter-96 GF/C filter plates (pre-soaked in 1 mg/mL BSA for 2 hours). The bound activity was counted in a TopCount using Microscint-20. […]

[2] = test system: skin incision model of postoperative pain; assay: Skin incision model of postoperative pain (tactile allodynia, von Frey); format: in vivo; conditions: rat; for withdrawal threshold for the incisional paw (allodynia): 10 and 30 μmol/kg i.p., two hours after surgery; for analgesia (tactile allodynia), agonist after rimonabant: 30 μmol/kg i.p. given 15 min after rimonabant 30 μmol/kg i.p.
From the text: Adult male Sprague-Dawley rats (250-300 g body weight, Charles River Laboratories, Portage, Mich.) were used. Animal handling and experimental protocols were approved by the Institutional Animal Care and Use Committee (IACUC) at Abbott Laboratories. For all surgical procedures, animals were maintained under halothane anesthesia (4% to induce, 2% to maintain), and the incision sites were sterilized using a 10% povidone-iodine solution prior to and after surgeries.
A skin incision model of postoperative pain was produced using the procedures described in Brennan et al., 1996, Pain, 64, 493. All rats were anesthetized with isoflurane delivered via a nose cone. Right hind paw incision was performed following sterilization procedures. The plantar aspect of the […] hind paw was placed through a hole in a sterile plastic drape. A 1-cm longitudinal incision was made through the skin and fascia of the plantar aspect of the hind paw, starting 0.5 cm from the proximal edge of the heel and extending towards the toes, the plantar muscle was elevated and incised longitudinally leaving the muscle origin and insertion points intact. The skin was then closed with two mattress sutures (5-0 nylon). After surgery, animals were then allowed to recover for 2 hours, at which time tactile allodynia was assessed as described below. To evaluate the anti-nociceptive effects, animals were i.p. administered vehicle or test compound 90 minutes following skin incision and tactile allodynia was typically assessed 30 minutes after compound administration.
Tactile allodynia was measured using calibrated von Frey filaments (Stoelting, Wood Dale, Ill.) as described in Chaplan, S. R., F. W. Bach, J. W. Porgrel, J. M. Chung and T. L. Yaksh, 1994, Quantitative assessment of tactile allodynia in the rat paw, J. Neurosci. Methods, 53, 55. Rats were placed into inverted individual plastic cage (20×12.5×20 cm) on top of a suspended wire mesh grid, and acclimated to the test chambers for 20 minutes. The von Frey filaments were applied perpendicularly from underneath the cage through openings in the wire mesh floor directly to an area within 1-3 mm (immediately adjacent) of the incision, and then held in this position for approximately 8 seconds with enough force to cause a slight bend in the filament. Positive responses included an abrupt withdrawal of the hind paw from the stimulus, or flinching behavior immediately following removal of the stimulus. A 50% withdrawal threshold was determined using an up-down procedure as described in Dixon, W. J., 1980, Efficient analysis of experimental observations, Ann. Rev. Pharmacol. Toxicol., 20, 441. The effect on paw withdrawal latency of test compounds compared to vehicle control represents the ability of the test compound to reduce allodynia. An increase in the paw withdrawal latency represents an anti-allodynic effect (i.e., a decrease in pain).
Using the skin incisional model of postoperative pain, the effects of compound A, CB2 agonist (Z)—N-(5-tert-butyl-3-butylthiazol-2(3H)-ylidene)-5-chloro-2-methoxybenzamide, on allodynia was assessed two hours after surgery.
Using the skin incisional model of postoperative pain, the effects of CB2 agonist A were evaluated after the administration of vehicle or the CB1 antagonist rimonabant. This effect was compared with the administration of vehicle after the administration of vehicle or the CB1 antagonist rimonabant. A first dose, consisting of CB1 antagonist rimonabant (30 μmol/kg i.p.) or a vehicle (5% DMSO/PEG), was administered 15 minutes before a second dose, consisting of administration of CB2 agonist A (30 μmol/kg i.p.) or vehicle. Allodynia testing was conducted 30 minutes after administration of the second dose, either CB2 agonist A or vehicle.

[3] = molecular target: T2, human CB1 (Homo sapiens, UniProt P21554); assay: CB1 radioligand binding assay ([3H]CP-55,940 competition)
T2 construct: purchased Perkin Elmer; host or cells: HEK293 membranes
Method: as §1
For CB1 radioligand binding assay HEK293 human CB1 membranes were purchased from Perkin Elmer. Binding was initiated by the addition of membranes (8-12 μg per well) into wells (Scienceware 96-well DeepWell plate, VWR, West Chester, Pa.) containing [^3H]CP-55,940 (120 Ci/mmol, Perkin Elmer, Boston, Mass.) and a sufficient volume of assay buffer (50 mM Tris, 2.5 mM EDTA, 5 mM MgCl2, and 0.5 mg/mL fatty acid free BSA, pH 7.4) to bring the total volume to 250 μL. After incubation (30° C. for 90 minutes), binding was terminated by the addition of 300 μL per well of cold assay buffer and rapid vacuum filtration (FilterMate Cell Harvester, Perkin Elmer, Boston, Mass.) through a UniFilter-96 GF/C filter plate (Perkin Elmer, Boston, Mass.) (pre-soaked in 0.3% PEI at least 3 hours), followed by five washes with cold assay buffer. The bound activity was counted in the TopCount using Microscint-20 (both from Perkin Elmer, Boston, Mass.). Competition experiments were conducted with 1 nM [^3H]CP-55,940 and five concentrations (1 nM to 10 μM) of displacing ligands. The addition of 10 μM unlabeled CP-55,940 (Tocris, Ellisville, Mo.) was used to assess nonspecific binding.

T1 sequence (P34972 whole entry): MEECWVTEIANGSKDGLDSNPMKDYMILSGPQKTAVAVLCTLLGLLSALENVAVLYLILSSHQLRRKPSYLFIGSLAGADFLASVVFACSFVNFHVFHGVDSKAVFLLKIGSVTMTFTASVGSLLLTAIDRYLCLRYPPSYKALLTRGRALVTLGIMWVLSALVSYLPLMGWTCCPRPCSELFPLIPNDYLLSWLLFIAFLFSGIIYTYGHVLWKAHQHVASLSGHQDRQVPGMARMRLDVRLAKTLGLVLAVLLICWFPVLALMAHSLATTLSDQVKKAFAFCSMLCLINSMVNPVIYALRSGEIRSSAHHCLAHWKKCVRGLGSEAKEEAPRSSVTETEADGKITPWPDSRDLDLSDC
T2 sequence (P21554 whole entry): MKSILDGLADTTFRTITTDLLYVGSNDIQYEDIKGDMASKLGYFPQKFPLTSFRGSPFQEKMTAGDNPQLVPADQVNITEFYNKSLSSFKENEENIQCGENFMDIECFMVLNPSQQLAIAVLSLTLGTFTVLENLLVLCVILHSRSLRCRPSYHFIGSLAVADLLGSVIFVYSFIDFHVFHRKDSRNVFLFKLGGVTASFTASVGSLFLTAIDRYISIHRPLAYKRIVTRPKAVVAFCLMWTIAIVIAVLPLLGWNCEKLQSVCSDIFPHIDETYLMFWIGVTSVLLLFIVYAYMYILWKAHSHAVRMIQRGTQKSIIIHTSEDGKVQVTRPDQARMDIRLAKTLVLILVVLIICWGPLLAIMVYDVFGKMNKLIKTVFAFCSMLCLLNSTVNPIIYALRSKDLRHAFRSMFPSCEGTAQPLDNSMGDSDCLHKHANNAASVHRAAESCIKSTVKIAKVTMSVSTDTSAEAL

COCCn1c(C)c(C)s/c1=N\C(=O)C1C(C)(C)C1(C)C [compound B, (Z)—N-(3-(2-methoxyethyl)-4,5-dimethylthiazol-2(3H)-ylidene)-2,2,3,3-tetramethylcyclopropanecarboxamide]
Ki ([1]; HEK293 membranes expressing human CB2, 0.5 nM [3H]CP-55,940, read-out: Ki for CB2 receptors): 0.0006 µM | withdrawal threshold for the incisional paw (allodynia) [2]: re-establishing withdrawal threshold | Ki ([3]; HEK293 human CB1 membranes, 1 nM [3H]CP-55,940, read-out: Ki for CB1 receptors): 0.273 µM

CCCCn1cc(C(C)(C)C)s/c1=N\C(=O)c1cc(Cl)ccc1OC [compound A, (Z)—N-(5-tert-butyl-3-butylthiazol-2(3H)-ylidene)-5-chloro-2-methoxybenzamide]
Ki [1]: 0.0018 µM | analgesia (tactile allodynia), agonist after rimonabant ([2]; tested 30 min after second dose): equivalent efficacy | analgesia (tactile allodynia), agonist after rimonabant ([2]; tested 30 min after second dose, listed as CB2 agonist A): able to induce analgesia | analgesia (tactile allodynia), agonist after vehicle ([2]; 30 μmol/kg i.p. given 15 min after vehicle, tested 30 min after second dose): able to induce analgesia | withdrawal threshold for the incisional paw (allodynia) [2]: recovered | Ki [3]: 3.67 µM
